Test results as given in ChEMBL document CHEMBL3588762, “A practical glycosyltransferase assay for the identification of new inhibitor chemotypes” (Medchemcomm, 2014).
Calls of active or inactive are those of the source. The rule behind the calls is not given here.

Legend:
[1] = target: T1, Alpha 1,4 galactosyltransferase (Neisseria meningitidis) (UniProt Q8KHJ3); assay: Activity of Neisseria meningitidis alpha-1,4-galactosyltransferase LgtC assessed as compound turn over rates at 50 to 100 uM incubated for 20 mins by inorganic phosphate release and malachite green dye based inorganic phosphate detection based assay
T1 sequence (whole entry): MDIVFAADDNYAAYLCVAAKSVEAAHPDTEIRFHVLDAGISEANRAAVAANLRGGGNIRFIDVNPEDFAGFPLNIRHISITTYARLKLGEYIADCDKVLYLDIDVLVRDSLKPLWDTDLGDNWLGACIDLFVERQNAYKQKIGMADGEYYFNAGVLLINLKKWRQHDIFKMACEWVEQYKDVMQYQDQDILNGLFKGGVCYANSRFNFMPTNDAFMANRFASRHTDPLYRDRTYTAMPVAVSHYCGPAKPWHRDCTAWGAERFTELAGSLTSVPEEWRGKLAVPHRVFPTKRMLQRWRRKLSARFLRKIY

[2] = target: T2, Alpha 1,4 galactosyltransferase (Neisseria meningitidis, UniProt Q8KHJ3); assay: Inhibition of Neisseria meningitidis alpha-1,4-galactosyltransferase LgtC by inorganic phosphate release from UDP and malachite green dye based inorganic phosphate detection based assay
T2 sequence (Q8KHJ3 whole entry): T1 sequence (whole entry)

[3] = target: T3, Beta-1,4-galactosyltransferase 1 (Bos taurus, UniProt P08037); assay: Inhibition of bovine beta-1,4-GalT […] at 29% donor UDP-Gal turn over rates by inorganic phosphate release from UDP and malachite green dye based inorganic phosphate detection based assay
T3 sequence (P08037 whole entry): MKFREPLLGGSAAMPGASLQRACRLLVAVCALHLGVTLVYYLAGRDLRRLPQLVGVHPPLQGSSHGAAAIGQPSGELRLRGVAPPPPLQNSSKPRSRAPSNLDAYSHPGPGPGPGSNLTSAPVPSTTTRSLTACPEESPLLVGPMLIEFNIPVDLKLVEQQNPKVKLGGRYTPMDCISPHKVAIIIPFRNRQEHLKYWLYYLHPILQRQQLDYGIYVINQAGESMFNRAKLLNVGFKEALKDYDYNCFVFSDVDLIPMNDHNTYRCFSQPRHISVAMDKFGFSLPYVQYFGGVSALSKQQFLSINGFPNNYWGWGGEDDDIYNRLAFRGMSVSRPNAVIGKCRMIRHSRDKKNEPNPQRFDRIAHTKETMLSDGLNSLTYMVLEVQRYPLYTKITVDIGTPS

[4] = target: Intestinal-type alkaline phosphatase (Bos taurus) (UniProt P19111); assay: Activity of calf intestinal phosphatase assessed as compound turn over rates by inorganic phosphate release and malachite green dye based inorganic phosphate detection based assay
Intestinal-type alkaline phosphatase (Bos taurus), sequence (P19111 20-506 limits assumed): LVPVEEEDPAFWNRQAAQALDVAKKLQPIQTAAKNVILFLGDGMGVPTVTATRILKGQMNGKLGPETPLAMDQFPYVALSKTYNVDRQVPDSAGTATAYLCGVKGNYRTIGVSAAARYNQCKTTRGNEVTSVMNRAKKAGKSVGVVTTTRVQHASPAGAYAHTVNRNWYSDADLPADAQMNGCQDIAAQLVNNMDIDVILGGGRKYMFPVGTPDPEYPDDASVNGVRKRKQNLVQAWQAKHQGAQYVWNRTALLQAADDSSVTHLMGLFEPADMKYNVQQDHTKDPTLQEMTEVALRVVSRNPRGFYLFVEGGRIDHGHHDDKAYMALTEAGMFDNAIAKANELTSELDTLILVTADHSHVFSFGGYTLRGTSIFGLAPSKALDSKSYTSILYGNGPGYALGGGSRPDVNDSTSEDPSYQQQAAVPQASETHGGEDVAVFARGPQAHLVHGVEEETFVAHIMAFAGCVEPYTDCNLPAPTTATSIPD

[5] = target: T1, Alpha 1,4 galactosyltransferase (Neisseria meningitidis); assay: Inhibition of Neisseria meningitidis alpha-1,4-galactosyltransferase LgtC at 50% donor UDP-Gal turn over rates by inorganic phosphate release from UDP and malachite green dye based inorganic phosphate detection based assay
[6] = target: T1, Alpha 1,4 galactosyltransferase (Neisseria meningitidis); assay: Inhibition of Neisseria meningitidis alpha-1,4-galactosyltransferase LgtC at 20% donor UDP-Gal turn over rates by inorganic phosphate release from UDP and malachite green dye based inorganic phosphate detection based assay
[7] = target: T1, Alpha 1,4 galactosyltransferase (Neisseria meningitidis); assay: Inhibition of Neisseria meningitidis alpha-1,4-galactosyltransferase LgtC at 90% donor UDP-Gal turn over rates by inorganic phosphate release from UDP and malachite green dye based inorganic phosphate detection based assay
[8] = target: T4, Beta-1,4-galactosyltransferase 1 (Bos taurus) (UniProt P08037); assay: Inhibition of bovine beta-1,4-GalT […] at 10% to 50 donor UDP-Gal turn over rates by inorganic phosphate release from UDP and malachite green dye based inorganic phosphate detection based assay
T4 sequence (whole entry): T3 sequence (P08037 whole entry)

| SMILES | Activity [1] | IC50 [2] | IC50 [3] | Activity [4] | inhibition [5] | inhibition [6] | inhibition [7] | inhibition [8] |
| --- | --- | --- | --- | --- | --- | --- | --- | --- |
| O=Cc1ccc(-c2cn([C@@H]3O[C@H](COP(=O)(O)OP(=O)(O)O[C@H]4O[C@H](CO)[C@H](O)[C@H](O)[C@H]4O)[C@@H](O)[C@H]3O)c(=O)[nH]c2=O)s1 | inactive | 0.9 µM | 9 µM | Active |  |  |  |  |
| O=c1ccn([C@@H]2O[C@H](COP(=O)(O)OP(=O)(O)O)[C@@H](O)[C@H]2O)c(=O)[nH]1 |  |  |  | Active |  |  |  |  |
| O=c1ccn([C@@H]2O[C@H](CO)[C@@H](O)[C@H]2O)c(=O)[nH]1 |  |  |  |  | inactive | inactive | inactive | inactive |
